Reference: PubChem BioAssay AID1919008 (Molecular Pharmacology Branch, DTP, NCI, 2023)

System: DMS-114 complex spheroids with HUVEC/MSC, growth % test/control
Assay: Anticancer human tumor DMS-114 cell line growth inhibition [AhR];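 note: spheroids exposed to agents for 7 days before readout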;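 for viability, T/C: 100% = DMSO vehicle control wells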
Conditions: for IC50: curve of first compound; for viability, T/C: stronger effect = lower value
From the text: Multicellular complex tumor spheroid response to aryl hydrocarbon receptor antagonists in combination with a variety of drugs and investigational agents in selected tumor cell lines
The current study was undertaken to assess response to aryl hydrocarbon receptor antagonists in combination with standard-of-care drugs and investigational agents in solid tumor complex spheroid models. Complex spheroids include a stromal component modeled by human endothelial cells (HUVEC) and fibroblasts modeled by human mesenchymal stem cells (MSCs). The concentration ranges selected for each drug and investigational agent were based upon clinically achievable concentrations if the clinical Cmax of the agent was known.
Compounds. The drugs and investigational agents: BAY 2416964 (NSC825713), GNF351 (NSC835774), CH-223191 (NSC835775), CPI-455 (NSC825282), aza-TdCyd (NSC777586), decitabine (NSC127716), belinostat (NSC758774), entinostat (NSC756642), pevonedistat (NSC761192), tazemetostat (NSC777109), talazoparib (NSC765396), olaparib (NSC753686), selinexor (NSC780203), nedisertib (M3814, NSC802822), bortezomib (NSC756655), venetoclax (NSC766270), doxorubicin (NSC123127), elimusertib (BAY189344, NSC800525), ceralasertib (AZD6738, NSC777638), TAK-243 (NSC785004), alisertib (NSC759677), etoposide (NSC141540), topotecan (NSC609699), eribulin (NSC707389), gemcitabine (NSC613327), carboplatin (NSC241240), cisplatin (NSC119875), and SN-38 (NSC673596) were obtained from the National Cancer Institute (NCI) Developmental Therapeutics Program Chemical Repository (32). The FDA-approved anticancer drug set is available from the Developmental Therapeutics Program at https://dtp.cancer.gov/organization/dscb/obtaining/available plates.htm. […] The stock solutions were prepared in dimethyl sulfoxide (DMSO, Sigma-Aldrich, St. Louis, MO, cat. D2650), except for the platinum compounds which were prepared in saline (Quality Biological, Gaithersburg, MD, cat. 114-055-101), at 800-fold the tested concentration and stored at -70 degrees C prior to their use. All drugs and investigational agents were tested over a range starting from a high concentration at or near the clinical Cmax and decreasing in half-log increments. If the clinical Cmax for an agent had not been determined, the highest concentration tested was 10 microM (Table 1).
Cell Culture. All cells were maintained in an incubator at 37 degrees C and 5% CO2 with 95% humidity. The PDC lines were cultured according to standard operating procedures established by the NCI PDMR (https://pdmr.cancer.gov). Briefly, all PDCs were thawed and cultured in Matrigel-coated flasks prepared with a working solution of 1X Ham's F-12 nutrient mix, without supplementation (Invitrogen, Waltham, MA, cat. 11765054), 100 U/mL penicillin-streptomycin (Invitrogen, cat. 15140122), and 2.5% Matrigel (Corning Inc., Corning, NY, cat. 354248) for the first three passages. All PDCs were cultured in complete DMEM/F-12 media containing advanced DMEM/F-12 (Invitrogen, cat. 12634028), 4.9% defined fetal bovine serum, heat inactivated (HyClone Laboratories Inc., Logan, UT, cat. SH30070.03HI), 389 ng/mL hydrocortisone (Sigma-Aldrich, cat. H4001), 9.7 ng/mL human EGF recombinant protein (Invitrogen, cat. PHG0313), 23.4 microg/mL adenine (Sigma-Aldrich, cat. A2786), 97.3 U/mL penicillin-streptomycin (Invitrogen, cat. 15140122), 1.9 mM L-glutamine (Invitrogen, cat. 25030081), and 9.7 microM Y-27632 dihydrochloride (Tocris Bioscience, Bristol, United Kingdom, cat. 1254). The PDCs were cultured in complete DMEM/F12 media without 10 microM Y-27632 dihydrochloride for at least two passages prior to the screen. The established cell lines NCI-H1341 and […] were cultured in DMEM/F-12, HEPES (Invitrogen, cat. 11330032), 5% defined fetal bovine serum (HyClone Laboratories Inc., cat. SH30070.03), ITS premix universal culture supplement [insulin (5 microg/mL), transferrin (5 microg/mL), and selenious acid (5 ng/mL)] […]

[1] = second compound 0.1 µM, first compound 0.0316 µM
[2] = second compound 0.1 µM, first compound 0.1 µM
[3] = second compound 0.1 µM, first compound 0.316 µM
[4] = second compound 0.1 µM, first compound 1 µM
[5] = second compound 0.1 µM, first compound 3.16 µM
[6] = second compound 0.1 µM, first compound 10 µM
[7] = second compound 0.316 µM, first compound 0.0316 µM
[8] = second compound 0.316 µM, first compound 0.1 µM
[9] = second compound 0.316 µM, first compound 0.316 µM
[10] = second compound 0.316 µM, first compound 1 µM
[11] = second compound 0.316 µM, first compound 3.16 µM
[12] = second compound 0.316 µM, first compound 10 µM
[13] = second compound 1 µM, first compound 0.0316 µM
[14] = second compound 1 µM, first compound 0.1 µM
[15] = second compound 1 µM, first compound 0.316 µM
[16] = second compound 1 µM, first compound 1 µM
[17] = second compound 1 µM, first compound 3.16 µM
[18] = second compound 1 µM, first compound 10 µM
[19] = second compound 3.16 µM, first compound 0.0316 µM
[20] = second compound 3.16 µM, first compound 0.1 µM
[21] = second compound 3.16 µM, first compound 0.316 µM
[22] = second compound 3.16 µM, first compound 1 µM
[23] = second compound 3.16 µM, first compound 3.16 µM
[24] = second compound 3.16 µM, first compound 10 µM
[25] = second compound 10 µM, first compound 0.0316 µM
[26] = second compound 10 µM, first compound 0.1 µM
[27] = second compound 10 µM, first compound 0.316 µM
[28] = second compound 10 µM, first compound 1 µM
[29] = second compound 10 µM, first compound 3.16 µM
[30] = second compound 10 µM, first compound 10 µM

For `CCc1c2c(nc3ccc(O)cc13)-c1cc3c(c(=O)n1C2)COC(=O)[C@]3(O)CC` + CC(CO)NC(=O)c1cc(-c2ccc(Cl)cc2)nn(-c2cnn(C)c2)c1=O, the IC50 (second compound 0.1 µM) was 0.0016 µM, the IC50 (second compound 0.316 µM) was 0.00109 µM and the IC50 (second compound 1 µM) was < 0.000949 µM. The IC50 (second compound 3.16 µM) was < 0.000949 µM, the IC50 (second compound 10 µM) was < 0.000949 µM and the viability, T/C (second compound 0.1 µM, first compound 0.000949 µM) was 56.4%. It also gave a viability, T/C (second compound 0.1 µM, first compound 0.003 µM) of 42.4%, a viability, T/C (second compound 0.1 µM, first compound 0.00949 µM) of 23.2% and a viability, T/C (second compound 0.1 µM, first compound 0.03 µM) of 17.5%. The viability, T/C (second compound 0.1 µM, first compound 0.0949 µM) was 17.7%, the viability, T/C (second compound 0.1 µM, first compound 0.3 µM) was 16.2% and the viability, T/C (second compound 0.316 µM, first compound 0.000949 µM) was 51.4%. For the same compound, the viability, T/C (second compound 0.316 µM, first compound 0.003 µM) was 40.4%, the viability, T/C (second compound 0.316 µM, first compound 0.00949 µM) was 21.2% and the viability, T/C (second compound 0.316 µM, first compound 0.03 µM) was 15.8%. It also gave a viability, T/C (second compound 0.316 µM, first compound 0.0949 µM) of 15.7%, a viability, T/C (second compound 0.316 µM, first compound 0.3 µM) of 15.4% and a viability, T/C (second compound 1 µM, first compound 0.000949 µM) of 49.4%. It also gave a viability, T/C (second compound 1 µM, first compound 0.003 µM) of 37.8%, a viability, T/C (second compound 1 µM, first compound 0.00949 µM) of 21% and a viability, T/C (second compound 1 µM, first compound 0.03 µM) of 15.4%. It also gave a viability, T/C (second compound 1 µM, first compound 0.0949 µM) of 18.8%, a viability, T/C (second compound 1 µM, first compound 0.3 µM) of 17.6% and a viability, T/C (second compound 3.16 µM, first compound 0.000949 µM) of 47.9%. It also gave a viability, T/C (second compound 3.16 µM, first compound 0.003 µM) of 31.5%, a viability, T/C (second compound 3.16 µM, first compound 0.00949 µM) of 20.7% and a viability, T/C (second compound 3.16 µM, first compound 0.03 µM) of 13.9%. For the same compound, the viability, T/C (second compound 3.16 µM, first compound 0.0949 µM) was 15.3%, the viability, T/C (second compound 3.16 µM, first compound 0.3 µM) was 16.6% and the viability, T/C (second compound 10 µM, first compound 0.000949 µM) was 43.5%. For the same compound, the viability, T/C (second compound 10 µM, first compound 0.003 µM) was 35.9%, the viability, T/C (second compound 10 µM, first compound 0.00949 µM) was 22.4% and the viability, T/C (second compound 10 µM, first compound 0.03 µM) was 15.1%. For the same compound, the viability, T/C (second compound 10 µM, first compound 0.0949 µM) was 15.7% and the viability, T/C (second compound 10 µM, first compound 0.3 µM) was 16.6%.

For `Nc1ccn(C2OC(CO)C(O)C2(F)F)c(=O)n1` (stereo not given) + CC(CO)NC(=O)c1cc(-c2ccc(Cl)cc2)nn(-c2cnn(C)c2)c1=O, the IC50 (second compound 0.1 µM) was < 0.0316 µM, the IC50 (second compound 0.316 µM) was < 0.0316 µM and the IC50 (second compound 1 µM) was < 0.0316 µM. The IC50 (second compound 3.16 µM) was < 0.0316 µM, the IC50 (second compound 10 µM) was < 0.0316 µM and the viability, T/C [1] was 12.1%. For the same compound, the viability, T/C [2] was 11.5%, the viability, T/C [3] was 11.5% and the viability, T/C [4] was 11.7%. It also gave a viability, T/C [5] of 11.6%, a viability, T/C [6] of 10.9% and a viability, T/C [7] of 11.8%. The viability, T/C [8] was 11.9%, the viability, T/C [9] was 13% and the viability, T/C [10] was 10.9%. For the same compound, the viability, T/C [11] was 11.6%, the viability, T/C [12] was 12.8% and the viability, T/C [13] was 12.6%. It also gave a viability, T/C [14] of 14.1%, a viability, T/C [15] of 14.4% and a viability, T/C [16] of 12.3%. The viability, T/C [17] was 10.6%, the viability, T/C [18] was 12.6% and the viability, T/C [19] was 10.6%. For the same compound, the viability, T/C [20] was 13.3%, the viability, T/C [21] was 12.9% and the viability, T/C [22] was 10.6%. For the same compound, the viability, T/C [23] was 11.2%, the viability, T/C [24] was 11.1% and the viability, T/C [25] was 11.6%. For the same compound, the viability, T/C [26] was 11.8%, the viability, T/C [27] was 12.7% and the viability, T/C [28] was 11.3%. For the same compound, the viability, T/C [29] was 12.7% and the viability, T/C [30] was 11.9%.

`O=C(c1cc(Cc2n[nH]c(=O)c3ccccc23)ccc1F)N1CCN(C(=O)C2CC2)CC1` + CC(CO)NC(=O)c1cc(-c2ccc(Cl)cc2)nn(-c2cnn(C)c2)c1=O was tested, and the IC50 (second compound 0.1 µM) was > 10 µM, the IC50 (second compound 0.316 µM) was > 10 µM and the IC50 (second compound 1 µM) was > 10 µM. For the same compound, the IC50 (second compound 3.16 µM) was > 10 µM, the IC50 (second compound 10 µM) was > 10 µM and the viability, T/C [1] was 119%. For the same compound, the viability, T/C [2] was 95.6%, the viability, T/C [3] was 89.2% and the viability, T/C [4] was 106%. The viability, T/C [5] was 94.3%, the viability, T/C [6] was 63.5% and the viability, T/C [7] was 96.7%. The viability, T/C [8] was 96.1%, the viability, T/C [9] was 95.5% and the viability, T/C [10] was 94.5%. For the same compound, the viability, T/C [11] was 90.3%, the viability, T/C [12] was 68.1% and the viability, T/C [13] was 108%. It also gave a viability, T/C [14] of 88.9%, a viability, T/C [15] of 118% and a viability, T/C [16] of 107%. For the same compound, the viability, T/C [17] was 102%, the viability, T/C [18] was 61.7% and the viability, T/C [19] was 99.4%. For the same compound, the viability, T/C [20] was 105%, the viability, T/C [21] was 95.7% and the viability, T/C [22] was 93.3%. It also gave a viability, T/C [23] of 85.6%, a viability, T/C [24] of 67.3% and a viability, T/C [25] of 94%. It also gave a viability, T/C [26] of 95.9%, a viability, T/C [27] of 87.8% and a viability, T/C [28] of 86%. For the same compound, the viability, T/C [29] was 86.2% and the viability, T/C [30] was 53.1%.
